Measurements published in US8753875B2, “Compositions and means for diagnosing microbial infections” (priority 2007, dated 2014).
Like-named read-outs stand apart in the source and are kept apart here.

Tests used:
E. coli [1] = conditions: 1142 E. coli outpatient urinary isolates, USA and Canada; cited from earlier work
Citrobacter = test system: Citrobacter; parameters: key: Susceptible = S; Resistant = R; conditions: cited from earlier work
E. coli [2] = assay: Growth of E. coli in antibiotic compartments of the platform (FIG. 3); type: cell-based; conditions: illustrated E. coli of FIG. 3
Text: The photos show growth of E. coli at different quantities of bacteria/ml urine.

Morganella = test system: Morganella; parameters: key: Susceptible = S; Resistant = R; conditions: cited from earlier work
Enterobacter = test system: Enterobacter; parameters: key: Susceptible = S; Resistant = R; conditions: cited from earlier work
E. faecalis [3] = test system: E. faecalis; parameters: key: Susceptible = S; Resistant = R; conditions: cited from earlier work
E. coli [4] = conditions: cited from earlier work
Klebsiella = test system: Klebsiella; parameters: key: Susceptible = S; Resistant = R; conditions: cited from earlier work
E. faecium [5] = test system: E. faecium; parameters: key: Susceptible = S; Resistant = R; conditions: cited from earlier work
Citrobacter spp. = assay: Growth on Flexicult plate, susceptibility/resistance to the five antibiotics (FIG. 4, Table A); type: cell-based
Text: (§1) The kit was developed for urine culture in the primary health care setting. It is designed preferably as a nine cm Petri dish divided into six compartments: One larger compartment for quantitative analysis and five smaller compartments for susceptibility testing. The agar in each small compartment contains one of five antimicrobials (for Denmark and Scandinavia preferably: trimethoprim, sulfamethizole, ampicillin, nitrofurantoin and mecillinam (amdinocillin)) at a concentration adjusted to the breakpoint, such that growth in these compartments indicates resistance, and no growth indicates susceptibility. The Petri dish preferably has higher sides, approximately 2.48 cm, than the usual dish, i.e. ca. 1.48 cm. This allows a larger amount, maximum 100 ml, of urine to be poured onto the dish for inoculation.
(§2) Reading the susceptibility of the bacterial growth: Each bacterium (if more than one) is read individually: The growth in each of the antibiotic fields is compared with the growth on the control agar. […] If there is no growth (or substantially less than the control agar), then the bacterium is considered to be susceptible to the antibiotic. […] When nitrofurantoin and mecillinam are used as antibiotics, a few single colonies may be seen of the same type as the bacterium on the control agar: These are not considered to be resistant mutants but “persisters,” i.e. if retested they will appear susceptible. This is commonly seen also by disc diffusion especially for mecillinam.

Candida spp. = assay: as above; type: cell-based
Text: as §1, §2

Klebsiella spp. = assay: as above; type: cell-based
Text: as §1, §2

P. vulgaris [6] = assay: as above; type: cell-based
Text: as §1, §2

E. coli [7] = assay: as above; type: cell-based
Text: as §1, §2

Enterobacter spp = assay: as above; type: cell-based
Text: as §1, §2

E. faecalis [8] = assay: as above; type: cell-based
Text: as §1, §2

Proteus mirabilis = assay: as above; type: cell-based
Text: as §1, §2

Morganella spp. = assay: as above; type: cell-based
Text: as §1, §2

P. aureginosa = assay: as above; type: cell-based
Text: as §1, §2

E. faecium [9] = assay: as above; type: cell-based
Text: as §1, §2

S. saprophyticus [10] = assay: as above; type: cell-based
Text: as §1, §2

Candida sp. = test system: Candida sp.; parameters: key: Susceptible = S; Resistant = R; conditions: cited from earlier work
P. vulgaris [11] = test system: P. vulgaris; parameters: key: Susceptible = S; Resistant = R; conditions: cited from earlier work
S. agalactiae = test system: S. agalactiae; parameters: key: Susceptible = S; Resistant = R; conditions: cited from earlier work
P. mirabilis = test system: P. mirabilis; parameters: key: Susceptible = S; Resistant = R; conditions: cited from earlier work
E. coli [12] = test system: E. coli; parameters: key: Susceptible = S; Resistant = R; conditions: cited from earlier work
[13] = Stability of the antimicrobial in the semi-solid media; type: physicochemical
Text: Stability of the antimicrobial in the semi-solid media may depend on the pH-value. The pH-value should preferably not exceed certain limits as this will influence the antimicrobial effect. The stability of Ampicillin and Mecillinam has been improved by adjusting the pH-value of the semi-solid media to 6.0.

Pseud. Aeruginosa = test system: Pseud. Aeruginosa; parameters: key: Susceptible = S; Resistant = R; conditions: cited from earlier work
S. saprophyticus [14] = test system: S. saprophyticus; parameters: key: Susceptible = S; Resistant = R; conditions: cited from earlier work
[15] = test system: Staphylococcus saprophyticus ATCC 49907; conditions: 32 mg/l nitrofurantoin; 10^5 CFU/ml suspension, 18-24 hours at 37° C.

Structure (SMILES): CC1(C)SC2C(NC(=O)C(N)c3ccccc3)C(=O)N2C1C(=O)O (centres unmarked) [Ampicillin, 7-(2-amino-2-phenyl-acetyl)amino-3,3-dimethyl-6-oxo-2-thia-5-azabicyclo[3.2.0]heptane-4-carboxylic acid]
- Overall resistance in E. coli (E. coli [1]): 37.7%
- Normal susceptibility/resistance (Citrobacter): R
- resistant or susceptible (growth in antibiotic compartment) (E. coli [2]): resistant
- Normal susceptibility/resistance (Morganella): R
- Normal susceptibility/resistance (Enterobacter): R
- Normal susceptibility/resistance (E. faecalis [3]): S
- Antimicrobial resistance of E. coli (resistance in percent) (E. coli [4]; Austria, n 126): 17.5%
- Antimicrobial resistance of E. coli (resistance in percent) (E. coli [4]; Belgium, n 137): 30.7%
- Antimicrobial resistance of E. coli (resistance in percent) (E. coli [4]; Canada, n 166): 29.5%
- Antimicrobial resistance of E. coli (resistance in percent) (E. coli [4]; Denmark, n 85): 22.4%
- Antimicrobial resistance of E. coli (resistance in percent) (E. coli [4]; Finland, n 182): 19.8%
- Antimicrobial resistance of E. coli (resistance in percent) (E. coli [4]; France, n 199): 27.6%
- Antimicrobial resistance of E. coli (resistance in percent) (E. coli [4]; Germany, n 138): 29.0%
- Antimicrobial resistance of E. coli (resistance in percent) (E. coli [4]; Greece, n 132): 22.0%
- Antimicrobial resistance of E. coli (resistance in percent) (E. coli [4]; Ireland, n 154): 44.8%
- Antimicrobial resistance of E. coli (resistance in percent) (E. coli [4]; Luxembourg, n 24): 41.7%
- Antimicrobial resistance of E. coli (resistance in percent) (E. coli [4]; Norway, n 168): 23.8%
- Antimicrobial resistance of E. coli (resistance in percent) (E. coli [4]; Portugal, n 86): 45.3%
- Antimicrobial resistance of E. coli (resistance in percent) (E. coli [4]; Spain, n 191): 53.9%
- Antimicrobial resistance of E. coli (resistance in percent) (E. coli [4]; Sweden, n 193): 15.5%
- Antimicrobial resistance of E. coli (resistance in percent) (E. coli [4]; Switzerland, n 122): 27.0%
- Antimicrobial resistance of E. coli (resistance in percent) (E. coli [4]; The Netherlands, n 195): 28.7%
- Antimicrobial resistance of E. coli (resistance in percent) (E. coli [4]; Total, n 2478): 29.8%
- Antimicrobial resistance of E. coli (resistance in percent) (E. coli [4]; United Kingdom, n 180): 37.2%
- Normal susceptibility/resistance (Klebsiella): R
- Normal susceptibility/resistance (E. faecium [5]): S
- Susceptibility = S or Resistance = R (Citrobacter spp.): R
- Susceptibility = S or Resistance = R (Candida spp.): R
- Susceptibility = S or Resistance = R (Klebsiella spp.): R
- Susceptibility = S or Resistance = R (P. vulgaris [6]): R/S
- Susceptibility = S or Resistance = R (E. coli [7]): R
- Susceptibility = S or Resistance = R (Enterobacter spp): R
- Susceptibility = S or Resistance = R (E. faecalis [8]): S
- Susceptibility = S or Resistance = R (Proteus mirabilis): S
- Susceptibility = S or Resistance = R (Morganella spp.): R
- Susceptibility = S or Resistance = R (P. aureginosa): R
- Susceptibility = S or Resistance = R (E. faecium [9]): S
- Susceptibility = S or Resistance = R (S. saprophyticus [10]): S
- Normal susceptibility/resistance (Candida sp.): R
- Normal susceptibility/resistance (P. vulgaris [11]): R
- Normal susceptibility/resistance (S. agalactiae): S
- Normal susceptibility/resistance (P. mirabilis): S
- Normal susceptibility/resistance (E. coli [12]): S
- stability in the semi-solid media [13]: improved
- Normal susceptibility/resistance (Pseud. Aeruginosa): R
- Normal susceptibility/resistance (S. saprophyticus [14]): S

Structure (SMILES): O=C1CN(N=Cc2ccc([N+](=O)[O-])o2)C(=O)N1 [Nitrofurantoin, 1-[(5-nitro-2-furyl)methylideneamino]imidazolidine-2,4-dione]
- Overall resistance in E. coli (E. coli [1]): 1.1%
- Normal susceptibility/resistance (Citrobacter): S
- resistant or susceptible (growth in antibiotic compartment) (E. coli [2]): susceptible
- Normal susceptibility/resistance (Morganella): R
- Normal susceptibility/resistance (Enterobacter): S/R
- Normal susceptibility/resistance (E. faecalis [3]): S
- Antimicrobial resistance of E. coli (resistance in percent) (E. coli [4]; Austria, n 126): 0.8%
- Antimicrobial resistance of E. coli (resistance in percent) (E. coli [4]; Belgium, n 137): 0.7%
- Antimicrobial resistance of E. coli (resistance in percent) (E. coli [4]; Canada, n 166): 1.2%
- Antimicrobial resistance of E. coli (resistance in percent) (E. coli [4]; Denmark, n 85): 1.2%
- Antimicrobial resistance of E. coli (resistance in percent) (E. coli [4]; Finland, n 182): 0.5%
- Antimicrobial resistance of E. coli (resistance in percent) (E. coli [4]; France, n 199): 1.0%
- Antimicrobial resistance of E. coli (resistance in percent) (E. coli [4]; Germany, n 138): 0.7%
- Antimicrobial resistance of E. coli (resistance in percent) (E. coli [4]; Greece, n 132): 3.0%
- Antimicrobial resistance of E. coli (resistance in percent) (E. coli [4]; Ireland, n 154): 0%
- Antimicrobial resistance of E. coli (resistance in percent) (E. coli [4]; Luxembourg, n 24): 4.2%
- Antimicrobial resistance of E. coli (resistance in percent) (E. coli [4]; Norway, n 168): 0%
- Antimicrobial resistance of E. coli (resistance in percent) (E. coli [4]; Portugal, n 86): 5.8%
- Antimicrobial resistance of E. coli (resistance in percent) (E. coli [4]; Spain, n 191): 4.2%
- Antimicrobial resistance of E. coli (resistance in percent) (E. coli [4]; Sweden, n 193): 0%
- Antimicrobial resistance of E. coli (resistance in percent) (E. coli [4]; Switzerland, n 122): 0.8%
- Antimicrobial resistance of E. coli (resistance in percent) (E. coli [4]; The Netherlands, n 195): 1.0%
- Antimicrobial resistance of E. coli (resistance in percent) (E. coli [4]; Total, n 2478): 1.2%
- Antimicrobial resistance of E. coli (resistance in percent) (E. coli [4]; United Kingdom, n 180): 0%
- Normal susceptibility/resistance (Klebsiella): S/R
- Normal susceptibility/resistance (E. faecium [5]): S
- Susceptibility = S or Resistance = R (Citrobacter spp.): S
- Susceptibility = S or Resistance = R (Candida spp.): R
- Susceptibility = S or Resistance = R (Klebsiella spp.): R
- Susceptibility = S or Resistance = R (P. vulgaris [6]): R/S
- Susceptibility = S or Resistance = R (E. coli [7]): S
- Susceptibility = S or Resistance = R (Enterobacter spp): S
- Susceptibility = S or Resistance = R (E. faecalis [8]): R
- Susceptibility = S or Resistance = R (Proteus mirabilis): S
- Susceptibility = S or Resistance = R (Morganella spp.): R/S
- Susceptibility = S or Resistance = R (P. aureginosa): R
- Susceptibility = S or Resistance = R (E. faecium [9]): R
- Susceptibility = S or Resistance = R (S. saprophyticus [10]): S
- Normal susceptibility/resistance (Candida sp.): R
- Normal susceptibility/resistance (P. vulgaris [11]): R
- reduction in the growth of/numbers of colonies formed [15]: at least 4 log CFU/ml
- Normal susceptibility/resistance (S. agalactiae): S
- Normal susceptibility/resistance (P. mirabilis): S/R
- Normal susceptibility/resistance (E. coli [12]): S
- Normal susceptibility/resistance (Pseud. Aeruginosa): R
- Normal susceptibility/resistance (S. saprophyticus [14]): S
